Assay results as given in PubChem BioAssay (NCI).
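Values below derive from 48-hour exposures of cells grown in 96-well plates, with endpoints linearly interpolated between the two concentrations bracketing the appropriate inhibition level. TGI denotes the concentration required for complete inhibition of growth.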

How the values were obtained:
Test in all cases: NCI-60 cell line screen, 48 h
[1] = system: NCI-H522 lung
[2] = system: SF-268 CNS
[3] = system: SNB-19 CNS
[4] = system: SW-620 colon
[5] = system: SK-OV-3 ovarian
[6] = system: UO-31 renal
[7] = system: SF-295 CNS
[8] = system: T-47D breast
[9] = system: UACC-62 melanoma
[10] = system: HT29 colon
[11] = system: NCI/ADR-RES ovarian
[12] = system: SN12C renal
[13] = system: LOX IMVI melanoma

| SMILES | TGI [1] [µM] | TGI [2] [µM] | TGI [3] [µM] | TGI [4] [µM] | TGI [5] [µM] | TGI [6] [µM] | TGI [7] [µM] | TGI [8] [µM] | TGI [9] [µM] | TGI [10] [µM] | TGI [11] [µM] | TGI [12] [µM] | TGI [13] [µM] |
| --- | --- | --- | --- | --- | --- | --- | --- | --- | --- | --- | --- | --- | --- |
| CC(=N/NC(=S)Nc1c(C)n(C)n(-c2ccccc2)c1=O)/C(C)=N\NC(=S)Nc1c(C)n(C)n(-c2ccccc2)c1=O | > 100 | > 100 | > 100 | > 100 | > 100 | > 100 | > 100 | > 100 | > 100 | > 100 | > 100 | – | – |
| CC1=CCC[C@@](C)(O)[C@@H]2C[C@H]3C(CSc4ccccc4)C(=O)O[C@H]3[C@@H](O2)[C@H](C)CCC1 (some centres not stated) | 35.9 | > 100 | 26.7 | 93.2 | 37.9 | 24.1 | 25.3 | 93.7 | 34.1 | – | – | > 100 | 81.6 |
| C=C(C)[C@@H]1CC[C@@H](C)[C@](O)([C@@H]2C[C@@H]([C@H](COC(=O)c3ccccc3)OC(=O)c3ccccc3)OC2=O)C1 | > 100 | > 100 | > 100 | > 100 | > 100 | > 100 | > 100 | – | > 100 | > 100 | > 100 | > 100 | > 100 |
| COC(=O)[C@H]1C=C[C@@H](C)n2c(=O)c3ccccc3c(=O)n21 | > 100 | > 100 | > 100 | > 100 | > 100 | > 100 | > 100 | – | – | > 100 | – | > 100 | > 100 |
| CC(=O)c1c(O)ccc2c1CC(CC=O)O2 (configuration not stated) | > 100 | > 100 | > 100 | > 100 | > 100 | > 100 | > 100 | – | > 100 | > 100 | – | > 100 | 60.9 |
| COc1cc2c(cc1OC)C1C(O)C(OC)C=C3CC[N+](C)(C2)C31 (configuration not stated) | > 100 | > 100 | > 100 | > 100 | > 100 | > 100 | > 100 | > 100 | > 100 | > 100 | > 100 | > 100 | – |
| c1ccc2[nH]c3[nH]c4[nH]c5ccccc5[nH]c4[nH]c3[nH]c2c1 | > 100 | > 100 | > 100 | > 100 | > 100 | > 100 | > 100 | – | > 100 | > 100 | > 100 | > 100 | > 100 |
| CN(C)c1ccc(/C=C2\N=C(N/N=C/c3ccccc3)NC2=O)cc1 | > 100 | > 100 | > 100 | > 100 | > 100 | > 100 | > 100 | > 100 | > 100 | > 100 | > 100 | > 100 | – |
| CN(C)CCCSc1c2ccccc2nc2cc(NCC(=O)Nc3ccccc3-c3ccccc3NC(=O)CNc3ccc4c(SCCCN(C)C)c5ccccc5nc4c3)ccc12 | > 100 | > 100 | > 100 | > 100 | > 100 | > 100 | > 100 | – | > 100 | > 100 | – | > 100 | > 100 |
| NC(=O)C12C3C4C1C1C2C3C41C(N)=O (configuration not stated) | > 100 | > 100 | > 100 | > 100 | > 100 | > 100 | > 100 | – | > 100 | > 100 | – | > 100 | > 100 |
| CCOc1ccc(N/C(=C(/C(Cl)=C(/Cl)NCCO)[N+](=O)[O-])n2nnc3ccccc32)cc1 | – | 41 | > 100 | 39.9 | > 100 | 58 | > 100 | 37.6 | 56.7 | 85.3 | 64 | 49.1 | – |
| COc1ccc(/C=C2\N=C(c3ccccc3)N(Nc3nnc(NN4C(=O)/C(=C/c5ccc(OC)cc5)N=C4c4ccccc4)c4ccccc34)C2=O)cc1 | > 100 | > 100 | > 100 | > 100 | – | – | > 100 | – | > 100 | > 100 | – | > 100 | 43 |
| Cn1c(=O)c2c(nc(C[N+]3([O-])CCOCC3)n2C)n(C)c1=O | > 100 | > 100 | > 100 | > 100 | > 100 | > 100 | – | – | > 100 | > 100 | – | > 100 | > 100 |
| CCCC(=O)N/S(=N/S(=O)(=O)c1ccc(Cl)cc1)C(Cl)(Cl)Cl (configuration not stated) | – | > 100 | > 100 | > 100 | > 100 | > 100 | > 100 | > 100 | > 100 | > 100 | > 100 | > 100 | – |
| COc1ccc(-c2onc(-c3c(C)cc(C)cc3C)c2C2=NCCCN2)cc1 | 35.5 | > 100 | > 100 | > 100 | > 100 | > 100 | 56.6 | – | > 100 | > 100 | – | > 100 | > 100 |
| COc1cccc(/C(C=O)=C(\Cl)c2ccc(OC)c(OC)c2)c1 | 22.1 | 25.3 | 16.3 | 29.6 | 58.8 | 28.2 | 28.9 | – | 17.4 | 27.5 | – | 27.8 | 28.7 |
| O=C1/C(=C/c2ccc(Cl)cc2)NC(=S)N1CN1CCOCC1 | – | > 100 | > 100 | > 100 | > 100 | > 100 | > 100 | – | > 100 | > 100 | > 100 | > 100 | > 100 |
| NC(=O)c1csc(CCCCCCc2nc(C(N)=O)cs2)n1 | > 100 | > 100 | > 100 | > 60.7 | > 100 | > 100 | > 100 | – | > 100 | > 59.8 | – | > 100 | > 100 |
| CC(=O)OC1OC2C(NC(=O)OC(C)(C)C)C1CC2(OCc1ccccc1)OCc1ccccc1 (configuration not stated) | 30.5 | > 100 | > 100 | > 100 | 74.9 | 30.3 | > 91.5 | – | 42.2 | > 100 | – | 75.2 | – |
| COc1ccc(C2CCC(Cl)(OC)CC2C=O)cc1 (configuration not stated) | > 100 | 97.3 | > 100 | > 100 | > 100 | > 100 | > 100 | – | > 100 | > 100 | – | > 100 | 43.7 |
| O=C1C(Cl)C(c2ccc(Cl)cc2)N1n1cnc2ccccc2c1=O (configuration not stated) | > 100 | > 100 | > 100 | > 100 | > 100 | > 100 | > 100 | – | > 100 | > 100 | – | > 100 | > 100 |
| Cc1nccc2c1cnc1ccnn12 | > 100 | > 100 | > 100 | > 100 | > 100 | > 100 | – | – | – | > 100 | – | > 100 | > 100 |
| O=C(O)c1cc(-c2ccccc2O)nc2ccccc12 | > 100 | > 100 | > 100 | > 100 | > 100 | > 100 | > 100 | – | > 100 | > 100 | – | > 100 | – |
| NC12CC3CC(C1)CC(Cl)(C3)C2 | > 100 | – | – | > 100 | > 100 | > 100 | – | – | > 100 | > 100 | – | – | > 100 |
| CC1=Nc2c([nH]c(=S)[nH]c2=O)NC(c2ccc(Cl)c(Cl)c2)C1 (configuration not stated) | > 100 | > 93.1 | > 59.8 | > 57.7 | 95.6 | 89.6 | 46.3 | – | > 63.7 | 59.6 | – | 43.9 | 40.3 |
| C/C(=N\NS(=O)(=O)c1ccc(C)cc1)C(CN(C)C)C(c1ccccc1)c1c(O)c2ccccc2oc1=O (configuration not stated) | > 100 | > 100 | > 100 | > 100 | > 100 | > 100 | > 100 | – | > 100 | > 100 | > 100 | > 100 | > 100 |
| CCOC(=O)C1=C(O)c2ccccc2C(=O)C1=O | > 100 | > 100 | > 100 | > 100 | > 100 | > 100 | > 100 | – | > 100 | > 100 | – | > 100 | > 100 |
| Cn1cnc2c(OCC3CCCCC3)nc(N)nc21 | > 100 | > 100 | > 100 | > 100 | > 100 | > 100 | > 100 | – | > 100 | > 100 | > 100 | > 100 | > 100 |
| NC1=NC2(O)c3ccccc3C(=O)C2(O)N1 (configuration not stated) | > 100 | > 100 | > 100 | > 100 | > 100 | – | > 100 | – | > 100 | > 100 | – | > 100 | > 100 |
| CCOC(=O)c1nnsc1NC(=O)Nc1ccc(Cl)cc1 | 50.1 | > 100 | > 100 | > 100 | – | > 100 | – | > 100 | > 100 | > 100 | 72.5 | > 100 | – |
